# Reference: ChEMBL document CHEMBL1926662, “Trace amine-associated receptor 1 is a stereoselective binding site for compounds in the amphetamine class” (Bioorg Med Chem, 2011)
# What was measured:
# [1] = target: T1, Trace amine-associated receptor 1 (Homo sapiens, UniProt Q96RJ0); assay: Activation of C-terminal HA epitope tagged human TAAR1 expressed in RD-HGA16 cells co-expressing Gq protein, Galpha16 by cAMP accumulation assay; type: functional, cell-based
# T1 sequence (Q96RJ0 whole entry): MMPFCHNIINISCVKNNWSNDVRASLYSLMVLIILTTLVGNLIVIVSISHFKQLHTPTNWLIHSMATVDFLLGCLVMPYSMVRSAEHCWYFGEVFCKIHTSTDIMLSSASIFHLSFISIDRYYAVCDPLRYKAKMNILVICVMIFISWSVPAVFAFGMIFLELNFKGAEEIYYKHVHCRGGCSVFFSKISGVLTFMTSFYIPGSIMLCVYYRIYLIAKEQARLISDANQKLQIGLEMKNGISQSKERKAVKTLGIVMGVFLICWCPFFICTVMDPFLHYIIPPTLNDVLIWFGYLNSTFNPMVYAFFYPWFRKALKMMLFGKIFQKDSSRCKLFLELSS
# [2] = target: T2, Trace amine-associated receptor 1 (Macaca mulatta, UniProt Q8HZ64); assay: Activation of rhesus monkey TAAR1 expressed in RD-HGA16 cells co-expressing Gq protein assessed as cAMP accumulation by fluorescence plate reader; type: functional, cell-based
# T2 sequence (Q8HZ64 whole entry): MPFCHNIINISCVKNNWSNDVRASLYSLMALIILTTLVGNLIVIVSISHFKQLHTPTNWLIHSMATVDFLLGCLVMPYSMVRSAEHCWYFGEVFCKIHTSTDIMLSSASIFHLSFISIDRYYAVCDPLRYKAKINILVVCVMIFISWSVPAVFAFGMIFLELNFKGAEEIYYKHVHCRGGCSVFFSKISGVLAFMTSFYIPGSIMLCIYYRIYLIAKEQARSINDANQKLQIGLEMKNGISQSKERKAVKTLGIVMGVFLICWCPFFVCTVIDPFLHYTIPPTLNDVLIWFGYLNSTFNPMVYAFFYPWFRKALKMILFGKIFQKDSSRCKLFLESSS
# [3] = target: T3, Trace amine-associated receptor 1 (Rattus norvegicus, UniProt Q923Y9); assay: Activation of rat TAAR1 expressed in HEK293 cells assessed as accumulation of [3H]cAMP after 1 hr by competitive binding assay; type: functional, cell-based
# [4] = target: T1, Trace amine-associated receptor 1; assay: Activation of human TAAR1 expressed in Syrian hamster AV12-664 cells co-expressing GalphaS protein assessed as accumulation of cAMP after 30 mins using cAMP XS EA/CL as substrate by luminescence method in presence of RX821002 and alprenolol; type: functional, cell-based
# [5] = target: T3, Trace amine-associated receptor 1; assay: Activation of rat TAAR1 expressed in HEK293 cells assessed as accumulation of [3H]cAMP after 1 hr by liquid scintillation counting; type: functional, cell-based
# cells = details: HEK293
# Description: Activation of chimeric rat-human expressed in human HEK293 cells assessed as accumulation of [3H]cAMP after 1 hr by liquid scintillation counting
# [6] = target: T4, Trace amine-associated receptor 1 (Mus musculus, UniProt Q923Y8); assay: Activation of mouse TAAR1 expressed in human HEK293 cells assessed as accumulation of [3H]cAMP after 1 hr by liquid scintillation counting; type: functional, cell-based
# [7] = target: T4, Trace amine-associated receptor 1; assay: Activation of mouse TAAR1 expressed in human HEK293 cells assessed as accumulation of cAMP after 15 mins; type: functional, cell-based
# [8] = target: T1, Trace amine-associated receptor 1; assay: Activation of human TAAR1 expressed in human HEK293T cells assessed as cAMP accumulation after 10 mins by BRET assay; type: functional, cell-based, HEK-293T
# T3 sequence (Q923Y9 whole entry): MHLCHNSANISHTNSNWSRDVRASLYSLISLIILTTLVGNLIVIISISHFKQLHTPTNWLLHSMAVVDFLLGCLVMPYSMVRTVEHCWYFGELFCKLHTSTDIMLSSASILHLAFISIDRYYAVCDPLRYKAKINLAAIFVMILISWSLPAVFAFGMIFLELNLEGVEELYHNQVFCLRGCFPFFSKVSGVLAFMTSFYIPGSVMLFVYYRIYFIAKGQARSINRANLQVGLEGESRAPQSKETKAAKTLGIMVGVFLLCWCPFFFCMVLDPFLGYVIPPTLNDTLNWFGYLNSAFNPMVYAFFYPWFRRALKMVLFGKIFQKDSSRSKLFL
# T4 sequence (Q923Y8 whole entry): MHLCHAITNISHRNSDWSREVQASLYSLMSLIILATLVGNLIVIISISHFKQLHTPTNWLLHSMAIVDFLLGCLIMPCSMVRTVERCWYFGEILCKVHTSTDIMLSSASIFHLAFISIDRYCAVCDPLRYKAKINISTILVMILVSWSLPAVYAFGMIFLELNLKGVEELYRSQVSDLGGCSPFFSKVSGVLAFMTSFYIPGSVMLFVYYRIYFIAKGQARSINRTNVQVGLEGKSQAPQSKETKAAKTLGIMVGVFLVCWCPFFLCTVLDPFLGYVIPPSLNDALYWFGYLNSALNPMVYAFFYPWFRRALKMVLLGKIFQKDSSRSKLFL
smiles,measurement,setting,value
COc1cc(C[C@@H](C)N)c(OC)cc1C,EC50,[1]; rd-hga16,Not Active
same,EC50,[2]; rd-hga16,Not Active
CNC(C)Cc1ccc2c(c1)OCO2 (racemic) [MIDOMAFETAMINE],EC50,[3],1700 nM
NCCc1ccc(Oc2ccc(O)cc2)c(I)c1,EC50,[4],1510 nM
C[C@@H](N)Cc1cccc(C(F)(F)F)c1,EC50,[1]; rd-hga16,Not Active
CN[C@H](C)Cc1ccccc1,EC50,[1]; read-out: EC50,3300 nM
same,EC50,[5],1190 nM
same,EC50,cells,9830 nM
same,EC50,[6],2440 nM
same,EC50,[2]; read-out: EC50,2500 nM
CCc1cc(OC)c(C[C@@H](C)N)cc1OC,EC50,[1]; rd-hga16,Not Active
same,EC50,[2]; rd-hga16,Not Active
C[C@H](N)Cc1ccc2c(c1)OCO2,EC50,[1]; read-out: EC50,6570 nM
same,EC50,[2]; read-out: EC50,1350 nM
CN[C@@H](C)Cc1ccccc1 [METHAMPHETAMINE],EC50,[1]; read-out: EC50,1500 nM
same,EC50,[5],890 nM
same,EC50,cells,4440 nM
same,EC50,[7],70 nM
same,EC50,[6],920 nM
same,EC50,[2]; read-out: EC50,5300 nM
same,EC50,[8],1300 nM
NCCc1ccccc1 [PHENETHYLAMINE],EC50,[4],106 nM
CCc1cc(OC)c(C[C@H](C)N)cc1OC,EC50,[2]; rd-hga16,Not Active
CN[C@H](C)Cc1ccc2c(c1)OCO2,EC50,[1]; rd-hga16,Not Active
same,EC50,[2]; read-out: EC50,7400 nM
CN[C@@H](C)Cc1ccc2c(c1)OCO2,EC50,[2]; read-out: EC50,16100 nM
C[C@@H](N)Cc1ccc2c(c1)OCO2,EC50,[1]; read-out: EC50,11700 nM
same,EC50,[2]; read-out: EC50,2480 nM
COc1cccc(C[C@@H](C)N)c1,EC50,[1]; read-out: EC50,6500 nM
same,EC50,[2]; rd-hga16,Not Active
CC(N)Cc1ccc(O)cc1 (racemic) [HYDROXYAMPHETAMINE],EC50,[3],50 nM
COc1cc(C[C@H](C)N)c(OC)cc1C,EC50,[1]; rd-hga16,Not Active
same,EC50,[2]; read-out: EC50,900 nM
C[C@H](N)Cc1ccc(O)cc1 [(S)-P-HYDROXYAMPHETAMINE],EC50,[1]; read-out: EC50,2960 nM
same,EC50,[5],190 nM
same,EC50,cells,> 5420 nM
same,EC50,[6],280 nM
same,EC50,[2]; read-out: EC50,101 nM
COc1cc(C[C@H](C)N)c(OC)cc1Br,EC50,[1]; read-out: EC50,15300 nM
same,EC50,[2]; read-out: EC50,2140 nM
COc1cc(C[C@@H](C)N)c(OC)cc1Br,EC50,[1]; read-out: EC50,31900 nM
same,EC50,[2]; read-out: EC50,13900 nM
COc1cccc(C[C@H](C)N)c1 [(S)-M-METHOXYAMPHETAMINE],EC50,[1]; read-out: EC50,1900 nM
same,EC50,[2]; read-out: EC50,3300 nM
C[C@@H](N)Cc1ccc(O)cc1,EC50,[1]; read-out: EC50,3160 nM
same,EC50,[5],60 nM
same,EC50,cells,> 8540 nM
same,EC50,[6],5650 nM
same,EC50,[2]; read-out: EC50,424 nM
